Measurements taken from the supplement of paper PMC11208160.

Test: recombinant barcode read abundance after kanamycin selection (control-corrected) (log10(CPM+1)); higher = more efficient recombination; sequences stand for … in AGTGCAGAGAAAATCGGCCAGTTTTCTCTGCCTGCAGTCCGCATGCCGT…AGATTTATGCAGCGGACTGCCTTTCTCCCAAAGTGATAAACCGGACAGTATCATGGACCGGTTTTCCCGGTAATCCGTATTTGCAAGGTTGGTTTCACT; site = the 11-nt target
Method in brief: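 A promoter, a target, a barcode and the first 104 bridge RNA bases under J23119 made up each oligo. Oligos were Gibson-cloned into a vector bearing the other 73 bp and a T7-inducible recombinase, then co-electroporated into E. coli with a donor plasmid and plated in duplicate on chloramphenicol/ampicillin LB agar (control) or chloramphenicol/ampicillin/kanamycin with 0.1 mM IPTG. Recombination efficiency is the averaged, control-corrected counts per million of recombinant-junction barcodes. Reported values are log10(CPM+1).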
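Further: IS621 recombinase and bridge RNA in Escherichia coli cells.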

Row | Sequence | recombinant barcode read abundance (log10)
1 | GATAGAGCTTGGGTTCTAACCTGTTGCCG (site GATAGAGCTCG) | 0.772
2 | GATAGAGCTTGGGTTCTAACCTGTTGCCG (site GATATAGCTAG) | 0
3 | GATAGGCCTTGGGTTCTAACCTGTTGCTT (site AATTGGCCTAA) | 0.0314
4 | GATAGGCCTTGGGTTCTAACCTGTTGCTT (site GATAGGCCTAA) | 0.371
5 | GATAGTACTTGGGTTCTAACCTGTTGCCT (site GATAGTACTAG) | 1.48
6 | GATAGTACTTGGGTTCTAACCTGTTGCCT (site GATAGTCCTAG) | 0.0718
7 | GATAGTACTTGGGTTCTAACCTGTTGCCT (site GATAGTGCTAG) | 0.0995
8 | GATAGTACTTGGGTTCTAACCTGTTGCCT (site GATAGTTCTAG) | 0.17
9 | GATAGTTCTTGGGTTCTAACCTGTTGCCT (site GATAGTACTAG) | 0.0904
10 | GATAGTTCTTGGGTTCTAACCTGTTGCCT (site GATAGTCCTAG) | 0.675
11 | GATAGTTCTTGGGTTCTAACCTGTTGCCT (site GATAGTGCTAG) | 0.132
12 | GATAGTTCTTGGGTTCTAACCTGTTGCCT (site GATAGTTCTAG) | 0.264
13 | GATCATCCTTGGGTTCTAACCTGTTGCCT (site GATCATCCTAG) | 0.364
14 | GATCATCCTTGGGTTCTAACCTGTTGCCT (site GTTCATCCTAG) | 0.0462
15 | GATCCATCTTGGGTTCTAACCTGTTGCCT (site GATCCATCTAG) | 0.561
16 | GATCCATCTTGGGTTCTAACCTGTTGCCT (site GCTCCATCTAG) | 0.251
17 | GATCCATCTTGGGTTCTAACCTGTTGCCT (site GGTCCATCTAG) | 0.209
18 | GATCCATCTTGGGTTCTAACCTGTTGCCT (site GTTCCATCTAG) | 0.142
19 | GATCCGTCTTGGGTTCTAACCTGTTGCGG (site GATCCGTCTCC) | 0.136
20 | GATCCGTCTTGGGTTCTAACCTGTTGCGG (site GGTCCGGCTCC) | 0.551
21 | GATCCTACTTGGGTTCTAACCTGTTGCCT (site GATCCTACTAG) | 1.14
22 | GATCCTACTTGGGTTCTAACCTGTTGCCT (site GCTCCTACTAG) | 0.0495
23 | GATCCTACTTGGGTTCTAACCTGTTGCCT (site GGTCCTACTAG) | 0.346
24 | GATCCTACTTGGGTTCTAACCTGTTGCCT (site GTTCCTACTAG) | 0.0681
25 | GATCGATCTTGGGTTCTAACCTGTTGCGT (site GATCGATCTAA) | 0.197
26 | GATCGATCTTGGGTTCTAACCTGTTGCGT (site GATCGATCTAC) | 1.46

Row | Sequence | recombinant barcode read abundance (log10)
27 | GATCGATCTTGGGTTCTAACCTGTTGCGT (site GATCGATCTAG) | 0.284
28 | GATCGATCTTGGGTTCTAACCTGTTGCGT (site GATCGATCTAT) | 0.265
29 | GATCTGCCTTGGGTTCTAACCTGTTGCCT (site GATCAGCCTAG) | 0.246
30 | GATCTGCCTTGGGTTCTAACCTGTTGCCT (site GATCTGCCTAG) | 0.984
31 | GATGGGACTTGGGTTCTAACCTGTTGCCG (site GATAGGACTAG) | 0.0533
32 | GATGGGACTTGGGTTCTAACCTGTTGCCG (site GATGGGACTCG) | 2.19
33 | GATGTGCCTTGGGTTCTAACCTGTTGCGT (site CCGCGAGCTCG) | 0.0696
34 | GATGTGCCTTGGGTTCTAACCTGTTGCGT (site GATGTGCCTAC) | 2.57
35 | GATTATGCTTGGGTTCTAACCTGTTGCCT (site GAGTATGCTAG) | 0.259
36 | GATTATGCTTGGGTTCTAACCTGTTGCCT (site GATTATGCTAG) | 0.615
37 | GATTCTACTTGGGTTCTAACCTGTTGCTT (site GAATCTACTAA) | 0.155
38 | GATTCTACTTGGGTTCTAACCTGTTGCTT (site GACTCTACTAA) | 0.22
39 | GATTCTACTTGGGTTCTAACCTGTTGCTT (site GAGTCTACTAA) | 0.813
40 | GATTCTACTTGGGTTCTAACCTGTTGCTT (site GATTCTACTAA) | 0.0583
41 | GATTTCGCTTGGGTTCTAACCTGTTGCCT (site ATCAGTTCTCA) | 0.0643
42 | GATTTCGCTTGGGTTCTAACCTGTTGCCT (site GATTTCGCTAG) | 0.42
43 | GCAAGCTCTTGGGTTCTAACCTGTTGCTA (site GCAAGCTCTTA) | 1.3
44 | GCAAGCTCTTGGGTTCTAACCTGTTGCTA (site GCAAGGTCTTA) | 0.36
45 | GCAAGGGCTTGGGTTCTAACCTGTTGCCG (site GCAAGGGCTCG) | 1.24
46 | GCAAGGGCTTGGGTTCTAACCTGTTGCCG (site GCTAGGGCTCT) | 0.303
47 | GCAAGGTCTTGGGTTCTAACCTGTTGCAT (site CGTTCTCCTTA) | 0.18
48 | GCAAGGTCTTGGGTTCTAACCTGTTGCAT (site GCAAGGTCTAT) | 2.5
49 | GCAAGGTCTTGGGTTCTAACCTGTTGCTA (site GCAAGCTCTTA) | 0.133
50 | GCAAGGTCTTGGGTTCTAACCTGTTGCTA (site GCAAGGTCTTA) | 1.98
51 | GCAAGTCCTTGGGTTCTAACCTGTTGCGT (site CATGCCTCTCG) | 0.0651
52 | GCAAGTCCTTGGGTTCTAACCTGTTGCGT (site GCAAGTCCTAC) | 2.47

Row | Sequence | recombinant barcode read abundance (log10)
53 | GCAAGTTCTTGGGTTCTAACCTGTTGCCT (site GAAAGTTCTAG) | 0.113
54 | GCAAGTTCTTGGGTTCTAACCTGTTGCCT (site GCAAGTTCTAG) | 1.33
55 | GCAAGTTCTTGGGTTCTAACCTGTTGCCT (site GGAAGTTCTAG) | 0.172
56 | GCAAGTTCTTGGGTTCTAACCTGTTGCCT (site GTAAGTTCTAG) | 0.229
57 | GCAATATCTTGGGTTCTAACCTGTTGCCT (site AAGTCTCCTCT) | 0.0108
58 | GCAATATCTTGGGTTCTAACCTGTTGCCT (site GCAATATCTAG) | 1.26
59 | GCACAACCTTGGGTTCTAACCTGTTGCCT (site GCACAACCTAG) | 1.89
60 | GCACAACCTTGGGTTCTAACCTGTTGCCT (site GCACCACCTAG) | 0.0258
61 | GCACAACCTTGGGTTCTAACCTGTTGCCT (site GCACGACCTAG) | 0.214
62 | GCACAACCTTGGGTTCTAACCTGTTGCCT (site GCACTACCTAG) | 0.0085
63 | GCACACACTTGGGTTCTAACCTGTTGCTG (site GAACACACTCG) | 0
64 | GCACACACTTGGGTTCTAACCTGTTGCTG (site GCACACACTCA) | 2.5
65 | GCACACTCTTGGGTTCTAACCTGTTGCCT (site GCACACTCTAG) | 2.43
66 | GCACACTCTTGGGTTCTAACCTGTTGCCT (site GCACCCTCTAG) | 0.128
67 | GCACACTCTTGGGTTCTAACCTGTTGCCT (site GCACGCTCTAG) | 0
68 | GCACACTCTTGGGTTCTAACCTGTTGCCT (site GCACTCTCTAG) | 0.261
69 | GCACATTCTTGGGTTCTAACCTGTTGCCT (site GCACATACTAG) | 0.0258
70 | GCACATTCTTGGGTTCTAACCTGTTGCCT (site GCACATTCTAG) | 1.17
71 | GCACCCTCTTGGGTTCTAACCTGTTGCCT (site GCACACTCTAG) | 0.0655
72 | GCACCCTCTTGGGTTCTAACCTGTTGCCT (site GCACCCTCTAG) | 2.67
73 | GCACCCTCTTGGGTTCTAACCTGTTGCCT (site GCACGCTCTAG) | 0.0715
74 | GCACCCTCTTGGGTTCTAACCTGTTGCCT (site GCACTCTCTAG) | 0.0191
75 | GCACGTGCTTGGGTTCTAACCTGTTGCCT (site GCACGTGCTAG) | 0.624
76 | GCACGTGCTTGGGTTCTAACCTGTTGCCT (site GCCCGTGCTAG) | 0.141
77 | GCACGTGCTTGGGTTCTAACCTGTTGCCT (site GCGCGTGCTAG) | 0.0268
